Assay results: ChEMBL document CHEMBL4665653, “VU6005806/AZN-00016130, an advanced M positive allosteric modulator (PAM) profiled as a potential preclinical development candidate” (Bioorg Med Chem Lett, 2019)
Values after ≈ are worked out from the molar mass of the structure shown. Active and inactive are the calls of the source. The calls are words filed in the database; no cut-off is given here.

Assays:
[1] = Plasma clearance in cynomolgus monkey; format: ADME, Macaca fascicularis; settings: read-out: CL(app)
[2] = Hepatic clearance in rat; format: ADME; settings: in vivo
[3] = biological target: B1 bradykinin receptor (Homo sapiens) (UniProt P46663); assay: Displacement of [3H]desArg10-KD from human recombinant Bradykinin B1 receptor expressed in CHO-K1 cells assessed as residual binding level for radioligand at 10 uM incubated for 60 mins by radiometric scintillation analysis relative to control; format: cell-based
Chain of B1 bradykinin receptor (Homo sapiens) (P46663 whole entry): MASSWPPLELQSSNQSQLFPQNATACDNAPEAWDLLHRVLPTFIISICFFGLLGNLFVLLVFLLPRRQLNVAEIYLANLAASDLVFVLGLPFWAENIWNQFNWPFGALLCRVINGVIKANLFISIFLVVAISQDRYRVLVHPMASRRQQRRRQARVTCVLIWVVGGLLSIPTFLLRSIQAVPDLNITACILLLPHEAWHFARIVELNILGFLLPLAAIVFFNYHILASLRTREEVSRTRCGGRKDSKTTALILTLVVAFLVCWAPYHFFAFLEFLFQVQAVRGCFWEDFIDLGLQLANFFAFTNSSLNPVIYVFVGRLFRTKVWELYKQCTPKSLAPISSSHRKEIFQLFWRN

[4] = Volume of distribution at steady state in cynomolgus monkey; format: ADME, Macaca fascicularis; settings: in vivo, read-out: Vdss
[5] = Unbound brain-to-plasma concentration ratio in Sprague-Dawley rat at 0.1 to 0.2 mg/kg, iv measured after 1.5 hrs; format: ADME, organism-based; settings: dose 0.1-0.2 mg/kg, read-out: K(p,uu,brain)
[6] = biological target: 5-hydroxytryptamine receptor 1A (Homo sapiens) (UniProt P08908); assay: Displacement of [3H]-8-OH-DPAT from full length recombinant human 5HT1A receptor expressed in CHO-K1 cells assessed as residual binding level for radioligand at 10 uM incubated for 60 mins by radiometric scintillation analysis relative to control; format: cell-based
Chain of 5-hydroxytryptamine receptor 1A (Homo sapiens) (P08908 whole entry): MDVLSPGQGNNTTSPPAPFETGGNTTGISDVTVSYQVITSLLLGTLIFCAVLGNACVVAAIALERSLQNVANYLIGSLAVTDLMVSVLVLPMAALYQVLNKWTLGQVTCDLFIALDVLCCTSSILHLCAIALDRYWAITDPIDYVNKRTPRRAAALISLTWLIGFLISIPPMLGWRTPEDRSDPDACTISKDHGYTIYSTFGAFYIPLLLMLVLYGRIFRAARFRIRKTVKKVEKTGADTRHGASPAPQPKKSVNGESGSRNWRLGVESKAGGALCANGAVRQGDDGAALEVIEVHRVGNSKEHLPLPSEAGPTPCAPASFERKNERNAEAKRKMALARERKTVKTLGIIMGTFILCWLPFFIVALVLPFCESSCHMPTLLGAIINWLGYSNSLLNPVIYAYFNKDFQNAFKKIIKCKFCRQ

[7] = biological target: Muscarinic acetylcholine receptor M1 (Homo sapiens, UniProt P11229); assay: Positive allosteric modulation of human M1 receptor
Chain of Muscarinic acetylcholine receptor M1 (Homo sapiens, UniProt P11229) (P11229 whole entry): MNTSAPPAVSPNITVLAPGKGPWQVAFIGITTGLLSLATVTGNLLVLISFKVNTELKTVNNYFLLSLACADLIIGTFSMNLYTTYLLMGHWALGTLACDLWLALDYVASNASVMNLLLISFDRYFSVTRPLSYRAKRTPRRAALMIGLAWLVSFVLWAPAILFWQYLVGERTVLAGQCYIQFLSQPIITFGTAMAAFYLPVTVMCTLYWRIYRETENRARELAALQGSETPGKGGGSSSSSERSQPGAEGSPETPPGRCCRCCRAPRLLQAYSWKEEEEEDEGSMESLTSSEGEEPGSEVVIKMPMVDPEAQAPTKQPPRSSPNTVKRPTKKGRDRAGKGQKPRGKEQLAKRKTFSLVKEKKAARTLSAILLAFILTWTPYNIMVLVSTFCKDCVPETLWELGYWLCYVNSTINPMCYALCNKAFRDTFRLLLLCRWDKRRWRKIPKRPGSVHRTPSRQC

[8] = biological target: Glutamate NMDA receptor (Rattus norvegicus) (UniProt P35439+Q00959+Q00960+Q00961+Q62645+Q8VHN2+Q9R1M7); assay: Displacement of [3H]MDL 105,519 from glutamate NMDA receptor glycine binding site in Wistar rat cerebral cortical membranes assessed as residual binding level for radioligand at 10 uM incubated for 30 mins by radiometric scintillation analysis relative to control; format: tissue-based; settings: Cerebral cortex
Rattus norvegicus [9] = organism: Rattus norvegicus; assay: Displacement of [3H]GABA from GABA receptor in Wistar rat brain assessed as residual binding level for radioligand at 10 uM after 20 mins by radiometric scintillation analysis relative to control; format: tissue-based
[10] = biological target: Voltage-dependent N-type calcium channel subunit alpha-1B (Rattus norvegicus) (UniProt Q02294); assay: Displacement of [125I]-w-conotoxin GIVA from N-type calcium channel Cav2.2 in Wistar rat brain membrane assessed as residual binding level for radioligand at 10 uM incubated for 30 mins by radiometric scintillation analysis relative to control; format: cell membranes
[11] = Brain to plasma permeability coefficient, Kp in Sprague-Dawley rat at 0.1 to 0.2 mg/kg, iv measured after 0.25 hrs; format: ADME, organism-based; settings: dose 0.1-0.2 mg/kg
[12] = biological target: Androgen receptor (Homo sapiens) (UniProt P10275); assay: Displacement of [3H]methyltrienolone from androgen receptor in human LNCaP cells assessed as residual binding level for radioligand at 10 uM measured after 1200 mins radiometric scintillation analysis relative to control; format: cell-based
Chain of Androgen receptor (Homo sapiens) (P10275 whole entry): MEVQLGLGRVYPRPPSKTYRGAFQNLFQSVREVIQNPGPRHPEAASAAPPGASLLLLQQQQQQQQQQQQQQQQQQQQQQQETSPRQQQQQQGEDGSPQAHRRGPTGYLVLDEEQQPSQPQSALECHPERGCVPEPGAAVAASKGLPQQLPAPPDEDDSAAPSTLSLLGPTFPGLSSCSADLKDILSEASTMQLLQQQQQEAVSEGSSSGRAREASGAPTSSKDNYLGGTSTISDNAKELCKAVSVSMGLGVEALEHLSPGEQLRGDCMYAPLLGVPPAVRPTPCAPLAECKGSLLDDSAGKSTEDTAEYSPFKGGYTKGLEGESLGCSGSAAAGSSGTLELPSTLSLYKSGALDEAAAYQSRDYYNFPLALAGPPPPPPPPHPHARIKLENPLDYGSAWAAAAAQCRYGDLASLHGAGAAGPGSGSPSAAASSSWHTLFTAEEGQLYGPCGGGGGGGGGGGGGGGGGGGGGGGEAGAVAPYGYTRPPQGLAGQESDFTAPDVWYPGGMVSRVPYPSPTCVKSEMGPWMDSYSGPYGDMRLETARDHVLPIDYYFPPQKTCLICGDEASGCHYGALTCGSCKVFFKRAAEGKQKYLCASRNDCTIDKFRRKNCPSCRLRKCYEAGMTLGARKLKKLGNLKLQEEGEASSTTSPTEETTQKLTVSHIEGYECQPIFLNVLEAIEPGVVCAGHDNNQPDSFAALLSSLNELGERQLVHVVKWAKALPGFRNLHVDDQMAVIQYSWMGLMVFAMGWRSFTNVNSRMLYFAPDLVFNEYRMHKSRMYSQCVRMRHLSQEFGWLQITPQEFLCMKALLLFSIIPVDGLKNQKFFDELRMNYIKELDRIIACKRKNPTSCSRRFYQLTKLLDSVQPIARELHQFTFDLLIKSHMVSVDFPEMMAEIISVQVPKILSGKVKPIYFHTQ

P-gp = assay: Substrate activity at human P-gp expressed in MDCK-MDR1 cells assessed as efflux ratio; format: ADME, cell-based
Rattus norvegicus [13] = organism: Rattus norvegicus; assay: Displacement of [3H]Muscimol from GABAA channel muscimol binding site in Wistar rat brain assessed as residual binding level for radioligand at 10 uM incubated for 10 mins by scintillation counting analysis relative to control; format: tissue-based
[14] = biological target: Muscarinic acetylcholine receptor M1 (Rattus norvegicus, UniProt P08482); assay: Positive allosteric modulation of rat M1 receptor
Chain of Muscarinic acetylcholine receptor M1 (Rattus norvegicus, UniProt P08482) (P08482 whole entry): as the sequence (P11229 whole entry) above, with A5V, T254S, P309S, R320K, A337G, I413V counted along it

Rattus norvegicus [15] = assay: Reversal of amphetamine-induced hyperlocomotion in rat at 3 mg/kg, po relative to control; format: functional
[16] = biological target: Alpha-1D adrenergic receptor (Homo sapiens) (UniProt P25100); assay: Displacement of [3H]-Prazosin from recombinant full length human adrenergic alpha 1D receptor assessed as residual binding level for radioligand at 10 uM incubated for 60 mins by radiometric scintillation analysis relative to control
[17] = Half life in dog; format: ADME, Canis lupus familiaris; settings: in vivo
[18] = Half life in cynomolgus monkey; format: ADME, Macaca fascicularis; settings: in vivo
[19] = biological target: P2X receptor (Rattus norvegicus) (UniProt P51579+P49653+P51578+Q64663+P47824+P51577+P49654); assay: Displacement of [3H] alpha, beta-Methylene-ATP from P2X receptor in Wistar rat urinary bladder assessed as residual binding level for radioligand at 10 uM incubated for 120 mins by liquid scintillation counting method relative to control; format: tissue-based
[20] = biological target: Endothelin-1 receptor (Homo sapiens) (UniProt P25101); assay: Displacement of [125I]endothelin-1 from recombinant full length human recombinant ETA receptor expressed in CHO-S cells assessed as residual binding level for radioligand at 10 uM measured after 120 mins by radiometric scintillation analysis relative to control; format: cell-based
Chain of Endothelin-1 receptor (Homo sapiens) (P25101 whole entry): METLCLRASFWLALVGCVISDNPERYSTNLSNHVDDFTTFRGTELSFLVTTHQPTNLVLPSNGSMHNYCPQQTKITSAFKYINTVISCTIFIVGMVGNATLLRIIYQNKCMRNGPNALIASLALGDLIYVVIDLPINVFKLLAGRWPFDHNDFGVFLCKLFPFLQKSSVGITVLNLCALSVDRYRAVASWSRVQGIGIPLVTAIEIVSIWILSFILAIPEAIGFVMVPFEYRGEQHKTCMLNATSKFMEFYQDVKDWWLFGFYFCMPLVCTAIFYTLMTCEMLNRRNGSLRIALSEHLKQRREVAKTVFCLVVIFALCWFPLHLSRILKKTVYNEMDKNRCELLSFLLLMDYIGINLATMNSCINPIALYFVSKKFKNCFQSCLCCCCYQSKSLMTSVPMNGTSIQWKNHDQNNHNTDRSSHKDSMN

Mus musculus [21] = assay: Reversal of amphetamine-induced hyperlocomotion in po dosed C57BL/6 mouse assessed as minimum effective dose pretreated for 30 mins after habituation in chamber followed by amphetamine challenge and measured after 1 hr; format: functional; settings: C57BL/6, po, 0.5 h, read-out: MED
hERG (KCNH2) = hERG (KCNH2) (Homo sapiens, UniProt Q12809); assay: Displacement of [3H]-Astemizole from human recombinant full length ERG channel expressed in HEK293 cells assessed as residual binding level for radioligand at 10 uM incubated for 60 mins by scintillation counting analysis relative to control; format: cell-based; settings: probe [3H]-Astemizole, read-out: INH
Cytochrome P450 2D6 = Cytochrome P450 2D6 (Homo sapiens, UniProt P10635); assay: Inhibition of CYP2D6 (unknown origin); format: ADME
Chain of Cytochrome P450 2D6 (P10635 whole entry): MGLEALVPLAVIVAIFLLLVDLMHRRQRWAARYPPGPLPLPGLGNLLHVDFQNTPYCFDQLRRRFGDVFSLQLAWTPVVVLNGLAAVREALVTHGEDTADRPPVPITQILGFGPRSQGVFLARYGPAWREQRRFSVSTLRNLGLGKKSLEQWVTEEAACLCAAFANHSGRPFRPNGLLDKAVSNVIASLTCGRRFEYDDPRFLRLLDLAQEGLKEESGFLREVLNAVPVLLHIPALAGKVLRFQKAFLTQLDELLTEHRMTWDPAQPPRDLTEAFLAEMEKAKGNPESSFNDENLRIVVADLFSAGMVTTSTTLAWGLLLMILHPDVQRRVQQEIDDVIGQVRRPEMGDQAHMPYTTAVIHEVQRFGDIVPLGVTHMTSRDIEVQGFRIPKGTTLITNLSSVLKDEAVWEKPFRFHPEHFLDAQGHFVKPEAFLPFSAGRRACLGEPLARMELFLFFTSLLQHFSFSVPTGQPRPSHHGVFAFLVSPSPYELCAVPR

Rattus norvegicus [22] = organism: Rattus norvegicus; assay: Displacement of [3H]-TCP from NMDA glutamate receptor phencyclidine binding site in Wistar rat brain assessed as residual binding level for radioligand at 10 uM incubated for 45 mins by scintillation counting analysis relative to control; format: tissue-based
[23] = biological target: Gamma-aminobutyric acid type B receptor subunit 1 (Homo sapiens) (UniProt Q9UBS5); assay: Displacement of [3H]CGP-54626 from human recombinant full length GABAB1 receptor expressed in CHO-K1 cells assessed as residual binding level for radioligand at 10 uM incubated for 180 mins by scintillation counting analysis relative to control; format: cell-based
Chain of Gamma-aminobutyric acid type B receptor subunit 1 (Homo sapiens) (Q9UBS5 whole entry): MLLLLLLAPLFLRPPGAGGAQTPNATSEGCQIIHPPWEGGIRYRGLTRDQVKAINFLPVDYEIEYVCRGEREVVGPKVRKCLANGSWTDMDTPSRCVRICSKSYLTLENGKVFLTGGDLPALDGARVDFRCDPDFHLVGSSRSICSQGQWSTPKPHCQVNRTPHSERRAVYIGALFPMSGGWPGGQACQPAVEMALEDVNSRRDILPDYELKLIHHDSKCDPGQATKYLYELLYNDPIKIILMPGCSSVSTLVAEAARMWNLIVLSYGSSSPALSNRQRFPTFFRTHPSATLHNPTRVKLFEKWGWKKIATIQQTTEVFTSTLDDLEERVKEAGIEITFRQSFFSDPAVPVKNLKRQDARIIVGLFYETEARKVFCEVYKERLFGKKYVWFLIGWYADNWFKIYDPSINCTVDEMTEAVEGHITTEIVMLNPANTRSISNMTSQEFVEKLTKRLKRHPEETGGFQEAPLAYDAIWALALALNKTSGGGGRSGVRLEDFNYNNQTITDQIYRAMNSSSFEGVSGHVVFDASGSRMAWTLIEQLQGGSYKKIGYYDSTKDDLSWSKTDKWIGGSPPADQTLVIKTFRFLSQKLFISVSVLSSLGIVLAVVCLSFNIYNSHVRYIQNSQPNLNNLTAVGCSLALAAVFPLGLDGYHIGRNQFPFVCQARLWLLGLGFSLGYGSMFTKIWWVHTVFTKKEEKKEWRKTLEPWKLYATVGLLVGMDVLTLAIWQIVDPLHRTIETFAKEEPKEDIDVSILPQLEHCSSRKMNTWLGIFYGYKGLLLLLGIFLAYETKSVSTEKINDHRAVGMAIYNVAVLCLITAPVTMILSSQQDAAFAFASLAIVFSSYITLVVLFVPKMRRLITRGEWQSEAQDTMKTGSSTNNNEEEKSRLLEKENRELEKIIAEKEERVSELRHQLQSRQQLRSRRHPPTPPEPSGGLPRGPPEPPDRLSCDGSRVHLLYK

[24] = Solubility of the compound in simulated gastric fluid; format: physicochemical
[25] = biological target: Platelet-activating factor receptor (Homo sapiens) (UniProt P25105); assay: Displacement of [3H]-PAF from human PAF receptor assessed as residual binding level for radioligand at 10 uM incubated for 180 mins by scintillation counting analysis relative to control
Chain of Platelet-activating factor receptor (Homo sapiens) (P25105 whole entry): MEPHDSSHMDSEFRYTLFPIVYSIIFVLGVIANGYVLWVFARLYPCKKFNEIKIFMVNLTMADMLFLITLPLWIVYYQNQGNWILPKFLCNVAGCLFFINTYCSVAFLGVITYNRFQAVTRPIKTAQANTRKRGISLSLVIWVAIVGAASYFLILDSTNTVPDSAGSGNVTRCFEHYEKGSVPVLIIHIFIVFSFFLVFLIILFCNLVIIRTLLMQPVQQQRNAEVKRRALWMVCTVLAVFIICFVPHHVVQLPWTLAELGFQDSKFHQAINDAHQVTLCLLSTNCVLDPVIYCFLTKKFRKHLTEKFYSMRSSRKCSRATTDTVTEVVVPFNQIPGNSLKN

Mus musculus [26] = assay: Reversal of amphetamine-induced hyperlocomotion in C57BL/6 mouse at 0.1 to 10 mg/kg, po pretreated for 30 mins after habituation in chamber followed by amphetamine challenge and measured after 1 hr; format: functional, organism-based; settings: dose mg/kg 0.1-10, time 30.0 min
Cytochrome P450 3A4 = Cytochrome P450 3A4 (Homo sapiens, UniProt P08684); assay: Inhibition of CYP3A4 (unknown origin); format: ADME
Chain of Cytochrome P450 3A4 (P08684 whole entry): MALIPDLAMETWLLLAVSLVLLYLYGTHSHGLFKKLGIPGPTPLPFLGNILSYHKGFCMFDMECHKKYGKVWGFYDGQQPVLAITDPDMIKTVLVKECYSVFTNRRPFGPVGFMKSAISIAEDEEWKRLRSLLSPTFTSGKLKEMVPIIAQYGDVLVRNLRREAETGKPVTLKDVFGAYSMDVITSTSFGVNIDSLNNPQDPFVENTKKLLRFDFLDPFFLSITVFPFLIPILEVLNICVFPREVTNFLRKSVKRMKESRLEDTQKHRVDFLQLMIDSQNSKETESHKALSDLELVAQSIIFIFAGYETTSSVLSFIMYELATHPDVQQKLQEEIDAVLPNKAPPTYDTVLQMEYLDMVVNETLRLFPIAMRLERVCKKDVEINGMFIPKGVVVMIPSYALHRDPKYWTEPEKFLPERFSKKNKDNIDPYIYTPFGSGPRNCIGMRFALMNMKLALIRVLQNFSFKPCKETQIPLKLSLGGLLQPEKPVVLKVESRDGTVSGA

[27] = biological target: Histamine H3 receptor (Homo sapiens) (UniProt Q9Y5N1); assay: Displacement of [3H]-N-alpha-Methylhistamine from full length recombinant human recombinant Histamine H3 receptor expressed in CHO-K1 cells assessed as residual binding level for radioligand at 10 uM incubated for 120 mins by scintillation counting analysis relative to control; format: cell-based
[28] = biological target: Alpha-2A adrenergic receptor (Homo sapiens) (UniProt P08913); assay: Displacement of [3H][…] from recombinant full length human adrenergic alpha 2A receptor expressed in CHO-K1 cells assessed as residual binding level for radioligand at 10 uM incubated for 60 mins by radiometric scintillation analysis relative to control; format: cell-based
[29] = Brain to plasma permeability coefficient, Kp in cynomolgus monkey; format: ADME, Macaca fascicularis

Q: Which clearance [1] does the source give for `COc1nnc2sc(C(=O)NC3CN(c4ncc(C(F)(F)F)cn4)C3)c(N)c2c1C` here?
A: 16 mL/min/kg

Q: What about the CLH [2] of the same molecule?
A: 30.5 mL/min/kg

Q: And the Activity [3]?
A: > 50%

Q: And the Vd [4]?
A: 0.74 L/kg

Q: What about the Kp uu at 1.5 h [5] of the same molecule?
A: 0.35

Q: And the Activity [6]?
A: > 50%

Q: And the EC50 [7]?
A: > 30 µM

Q: What about the Activity [8] of the same molecule?
A: > 50%

Q: What about the Activity (Rattus norvegicus [9]) of the same molecule?
A: > 50%

Q: What about the Activity [10] of the same molecule?
A: > 50%

Q: What about the Kp at 0.25 h [11] of the same molecule?
A: 0.34

Q: What about the Activity [12] of the same molecule?
A: > 50%

Q: What about the efflux ratio (P-gp) of the same molecule?
A: 1.6

Q: What about the Activity (Rattus norvegicus [13]) of the same molecule?
A: > 50%

Q: What about the EC50 [14] of the same molecule?
A: > 30 µM

Q: What about the Activity (Rattus norvegicus [15]) of the same molecule?
A: 54%

Q: What about the Activity [16] of the same molecule?
A: > 50%

Q: What about the half-life [17] of the same molecule?
A: 1 h

Q: What about the half-life [18] of the same molecule?
A: 1.3 h

Q: And the Activity [19]?
A: > 50%

Q: And the Activity [20]?
A: > 50%

Q: What about the minimal effective dose (Mus musculus [21]) of the same molecule?
A: 1 mg/kg

Q: What about the activity at 1 h, 10 µM (hERG (KCNH2)) of the same molecule?
A: < 25%

Q: And the IC50 (Cytochrome P450 2D6)?
A: > 30 µM

Q: What about the Activity (Rattus norvegicus [22]) of the same molecule?
A: > 50%

Q: And the Activity [23]?
A: > 50%

Q: And the solubility [24]?
A: 15 µM (≈ 6.59 µg/mL)

Q: And the Activity [25]?
A: > 50%

Q: What about the Activity (Mus musculus [26]) of the same molecule?
A: Active

Q: What about the IC50 (Cytochrome P450 3A4) of the same molecule?
A: > 30 µM

Q: What about the Activity [27] of the same molecule?
A: > 50%

Q: And the Activity [28]?
A: > 50%

Q: What about the Kp [29] of the same molecule?
A: 1.7
